Structures can show the parent of a compound that is named as a salt.
Tested on: Acinetobacter baumannii ATCC17961
Assay: Antimicrobial susceptibility testing: 90% growth inhibitory concentration (IC90) determination in Iso-Sensitest broth, OD600 growth
Assay type: cell-based
Settings: Acinetobacter baumannii, ATCC17961, 16 h, read-out: A. baumannii ATCC 17961 IC90 (uM), strain ATCC 17961, OD600 growth over 16 h
In short: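 Each strain, at about 5×10^(5) CFU/ml, was incubated with twofold dilutions of compound at 35±2° C for 16 h, and IC90 was calculated from kinetic optical density measured at 600 nm during logarithmic growth.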

First: O=C(N[C@H]1CCNC1)N1CCN(C(=O)c2ccc(Nc3nccn4c(-c5c[nH]nc5C(F)(F)F)cnc34)cc2Cl)CC1 [Example 389, 4-[2-chloro-4-[[3-[3-(trifluoromethyl)-1H-pyrazol-4-yl]imidazo[1,2-a]pyrazin-8-yl]amino]benzoyl]-N-[(3S)-pyrrolidin-3-yl]piperazine-1-carboxamide formate]
Second: NC1CN(C(=O)N2CCN(C(=O)c3ccc(Nc4nccn5c(-c6c[nH]nc6C(F)(F)F)cnc45)cc3Cl)CC2)C1 [Example 266, [4-(3-aminoazetidine-1-carbonyl)piperazin-1-yl]-[2-chloro-4-[[3-[3-(trifluoromethyl)-1H-pyrazol-4-yl]imidazo[1,2-a]pyrazin-8-yl]amino]phenyl] methanone formate]
The IC90 of the first is 2.1-fold lower: 0.136 µM for the first, 0.282 µM for the second.

`N#CCn1cc(-c2cnc3c(Nc4ccc(C(=O)NC5CCC(N)CC5)c(Cl)c4)nccn23)c(C(F)(F)F)n1` (stereo not drawn) [Example 199, N-(4-aminocyclohexyl)-2-chloro-4-[[3-[1-(cyanomethyl)-3-(trifluoromethyl)pyrazol-4-yl]imidazo[1,2-a]pyrazin-8-yl]amino]benzamide formate] and `N#CCn1cc(-c2cnc3c(Nc4ccc(C(=O)NOCCN)c(Cl)c4)nccn23)c(C(F)(F)F)n1` [Example 201, N-(2-aminoethoxy)-2-chloro-4-[[3-[1-(cyanomethyl)-3-(trifluoromethyl)pyrazol-4-yl]imidazo[1,2-a]pyrazin-8-yl]amino]benzamide formate] are within 1.5-fold of each other in IC90: 0.336 µM for the first, 0.486 µM for the second.

Going from `CCc1cc(Nc2nccn3c(-c4cn(CC#N)nc4C(F)(F)F)cnc23)ccc1C(=O)NCCCNC(=O)CN` [Example 802, N-(3-(2-aminoacetamido)propyl)-4-((3-(1-(cyanomethyl)-3-(trifluoromethyl)-1H-pyrazol-4-yl)imidazo[1,2-a]pyrazin-8-yl)amino)-2-ethylbenzamide formate] to `CCc1cc(Nc2nccn3c(-c4cn(CC(F)F)nc4C(F)(F)F)cnc23)ccc1C(=O)NCCCNC(=O)[C@H]1CC[C@@H](N)C1` [Example 485, N-(3-((1S,3R)-3-aminocyclopentane-1-carboxamido)propsl)-4-((3-(1-(2,2-difluoroethyl)-3-(trifluoromethyl)-1H-pyrazol-4-yl)imidazo[1,2-a]pyrazin-8-yl)amino)-2-ethylbenzamide formate], the IC90 falls from 3.54 µM to 0.189 µM (19-fold).

Compared with `CCc1cc(Nc2nccn3c(-c4cn(CCN5CCOCC5)nc4C(F)(F)F)cnc23)ccc1C(=O)NCCOCCN` [Example 317, N-[2-(2-aminoethoxy)ethyl]-2-ethyl-4-[[3-[1-(2-morpholin-4-ylethyl)-3-(trifluoromethyl)pyrazol-4-yl]imidazo[1,2-a]pyrazin-8-yl]amino]benzamide formate], `CCc1cc(Nc2nccn3c(-c4cn(CCF)nc4C(F)(F)F)cnc23)ccc1C(=O)NCCOCCCN` [Example 610, N-(2-(3-aminopropoxy)ethyl)-2-ethyl-4-((3-(1-(2-fluoroethyl)-3-(trifluoromethyl)-1H-pyrazol-4-yl)imidazo [1,2-a]pyrazin-8-yl)amino)benzamide formate] is 19-fold lower in IC90: 1.88 µM for the first, 0.099 µM for the second.

`N#CCn1cc(-c2cnc3c(Nc4ccc(C(=O)N5CCN(C(=O)NCC6(O)CNC6)CC5)c(Cl)c4)nccn23)c(C(F)(F)F)n1` [Example 579, 4-(2-chloro-4-((3-(1-(cyanomethyl)-3-(trifluoromethyl)-1H-pyrazol-4-yl)imidazo[1,2-a]pyrazin-8-yl)amino)benzoyl)-N-((3-hydroxyazetidin-3-yl)methyl)piperazine-1-carboxamide formate] and `Cn1cc(Cn2cc(-c3cnc4c(Nc5ccc(C(=O)N6CCNCC6)c(Cl)c5)nccn34)c(C(F)(F)F)n2)cn1` [Example 134, [2-chloro-4-[[3-[1-[(1-methylpyrazol-4-yl)methyl]-3-(trifluoromethyl)pyrazol-4-yl]imidazo[1,2-a]pyrazin-8-yl]amino]phenyl]-piperazin-1-ylmethanone formate] are within 1.5-fold of each other in IC90: 0.538 µM for the first, 0.768 µM for the second.

Compared with `CCc1cc(Nc2nccn3c(-c4cn(CC(F)F)nc4C(F)(F)F)cnc23)ccc1C(=O)NCC(=O)NCCN(C)C` [Example 668, 4-[[3-[1-(2,2-difluoroethyl)-3-(trifluoromethyl)pyrazol-4-yl]imidazo[1,2-a]pyrazin-8-yl]amino]-N-[2-[2-(dimethylamino)ethylamino]-2-oxo-ethyl]-2-ethyl-benzamide formate], `CCc1cc(Nc2nccn3c(-c4cn(C)nc4C(F)(F)F)cnc23)ccc1C(=O)NCCNC(=O)[C@@H]1C[C@](C)(O)CN1` [Example 447, (2S,4S)-N-[2-[[2-ethyl-4-[[3-[1-methyl-3-(trifluoromethyl)pyrazol-4-yl]imidazo[1,2-a]pyrazin-8-yl]amino]benzoyl]amino]ethyl]-4-hydroxy-4-methylpyrrolidine-2-carboxamide formate] is 14-fold higher in IC90: 0.294 µM for the first, 4.19 µM for the second.

Same assay, conditions: Acinetobacter baumannii, ATCC17961, 16 h, strain ATCC 17961, OD600 growth over 16 h, read-out: A. baumannii ATCC 17961 IC90

`CCc1cc(Nc2nccn3c(-c4cn(CC#N)nc4C(F)(F)F)cnc23)ccc1C(=O)NCCCNC(=O)[C@H]1CC[C@@H](N)C1` [Example 484, N-(3-((1S,3R)-3-aminocyclopentane-1-carboxamido)propyl)-4-((3-(1-(cyanomethyl)-3-(trifluoromethyl)-1H-pyrazol-4-yl)imidazo[1,2-a]pyrazin-8-yl)amino)-2-ethylbenzamide formate] and `CCc1cc(Nc2nccn3c(-c4cn(CC#N)nc4C(F)(F)F)cnc23)ccc1C(=O)NCCCNC(=O)[C@H]1C[C@@H](N)C1` [Example 482, N-(3-((1s,3s)-3-aminocyclobutane-1-carboxamido)propyl)-4-((3-(1-(cyanomethyl)-3-(trifluoromethyl)-1H-pyrazol-4-yl)imidazo[1,2-a]pyrazin-8-yl)amino)-2-ethylbenzamide formate] are within 1.5-fold of each other in IC90: 0.154 µM for the first, 0.174 µM for the second.

First: N#CCn1cc(-c2cnc3c(Nc4ccc(C(=O)N5CCN(C(=O)[C@@H]6CCNC6)CC5)c(Cl)c4)nccn23)c(C(F)(F)F)n1 [Example 191, 2-[4-[8-[3-chloro-4-[4-[(3R)-pyrrolidine-3-carbonyl]piperazine-1-carbonyl]anilino]imidazo[1,2-a]pyrazin-3-yl]-3-(trifluoromethyl)pyrazol-1-yl]acetonitrile]
Second: N#CCn1cc(-c2cnc3c(Nc4ccc(C(=O)NCCNCC(=O)N[C@@H]5CCNC5)c(Cl)c4)nccn23)c(C(F)(F)F)n1 [Example 818, (R)-2-chloro-4-((3-(1-(cyanomethyl)-3-(trifluoromethyl)-1H-pyrazol-4-yl)imidazo[1,2-a]pyrazin-8-yl)amino)-N-(2-((2-oxo-2-(pyrrolidin-3-ylamino)ethyl)amino)ethyl) benzamide formate]
The IC90 of the first is 1.8-fold higher: 0.276 µM for the first, 0.15 µM for the second.

`C=CCn1cc(-c2cnc3c(Nc4cc(C)c(C(=O)N5CCN(C(=O)[C@H]6CC[C@H](O)N6)CC5)c(F)c4)nccn23)c(C(F)(F)F)n1` [Example 629, (4-(4-((3-(1-allyl-3-(trifluoromethyl)-1H-pyrazol-4-yl)imidazo[1,2-a]pyrazin-8-yl)amino)-2-fluoro-6-methylbenzoyl)piperazin-1-yl)((2R,5S)-5-hydroxypyrrolidin-2-yl)methanone] and `NCC(=O)N1CCN(C(=O)c2ccc(Nc3nccn4c(-c5cn(CC(F)F)nc5C(F)(F)F)cnc34)cc2F)CC1` [Example 812, 2-amino-1-(4-(4-(3-(1-2,2-difluoroethyl)-3-(trifluoromethyl)-1H-pyrazol-4-yl)imidazo[1,2-a]pyrazin-8-yl)amino)-2-fluorobenzoyl) piperazin-1-yl) ethan-1-one hydrochloride] are within 1.5-fold of each other in IC90: 0.198 µM for the first, 0.2 µM for the second.

Compared with `CCc1cc(Nc2nccn3c(-c4c[nH]nc4C(F)(F)F)cnc23)ccc1C(=O)NCCCNC(=O)[C@H]1C[C@@H](N)C1` [Example 531, N-(3-((1s,3s)-3-aminocyclobutane-1-carboxamido)propyl)-2-ethyl-4-((3-(3-(trifluoromethyl)-1H-pyrazol-4-yl)imidazo [1,2-a]pyrazin-8-yl)amino)benzamide formate], `Cc1cc(Nc2nccn3c(-c4c[nH]nc4C(F)(F)F)cnc23)ccc1C(=O)N1CCN(C(=O)NCC2CNC2)CC1` [Example 410, N-(azetidin-3-ylmethyl)-4-[2-methyl-4-[[3-[3-(trifluoromethyl)-1H-pyrazol-4-yl]imidazo[1,2-a]pyrazin-8-yl]amino]benzoyl]piperazine-1-carboxamide] is 4.7-fold higher in IC90: 0.299 µM for the first, 1.42 µM for the second.

Going from `N#CCn1cc(-c2cnc3c(Nc4ccc(C(=O)NCCNCC(=O)NC5CNC5)c(Cl)c4)nccn23)c(C(F)(F)F)n1` [Example 816, N-(2-(2-(azetidin-3-ylamino)-2-oxoethyl)amino) ethyl)-2-chloro-4-((3-(1-(cyanomethyl)-3-(trifluoromethyl)-1H-pyrazol-4-yl)imidazo[1,2-a]pyrazin-8-yl)amino) benzamide formate] to `CCNC(=O)c1ccc(Nc2nccn3c(-c4cn(CC#N)nc4C(F)(F)F)cnc23)cc1Cl` [Example 230, 2-chloro-4-[[3-[1-(cyanomethyl)-3-(trifluoromethyl)pyrazol-4-yl]imidazo[1,2-a]pyrazin-8-yl]amino]-N-ethylbenzamide], the IC90 falls from 0.29 µM to 0.091 µM (3.2-fold).

Same assay, conditions: strain ATCC 17961, OD600 growth over 16 h, read-out: A. baumannii ATCC 17961 IC90

Compared with `N[C@@H]1CN[C@@H](C(=O)N2CCN(C(=O)c3ccc(Nc4nccn5c(-c6c[nH]nc6C(F)(F)F)cnc45)cc3Cl)CC2)C1` [Example 245, [4-[(2R,4S)-4-aminopyrrolidine-2-carbonyl]piperazin-1-yl]-[2-chloro-4-[[3-[3-(trifluoromethyl-1H-pyrazol-4-yl]imidazo[1,2-a]pyrazin-8-yl]amino]phenyl]methanone formate], `C=CCn1cc(-c2cnc3c(Nc4ccc(C(=O)NCCOCC(C)(C)N)c(CC)c4)nccn23)c(C(F)(F)F)n1` [Example 45, N-[2-(2-amino-2-methylpropoxy)ethyl]-2-ethyl-4-[[3-[1-prop-2-enyl-3-(trifluoromethyl)pyrazol-4-yl]imidazo[1,2-a]pyrazin-8-yl]amino] benzamide] is 6.1-fold lower in IC90: 0.45 µM for the first, 0.074 µM for the second.
